Data reported in ChEMBL document CHEMBL5226297, “Small-Molecule Drug Discovery in Triple Negative Breast Cancer: Current Situation and Future Directions” (J Med Chem, 2021).
Values after ≈ are worked out from the molar mass of the structure shown. One block for each compound: values may come before it.

Experiments:
Thioredoxin = Thioredoxin (Homo sapiens, UniProt P10599); experiment: Inhibition of human TXN incubated for 30 mins by fluorescence based plate reader analysis
SUM149PT = experiment: Anticancer activity against human SUM149 cells assessed as cell growth inhibition; format: functional, cell-based
MDA-MB-231 [1] = experiment: Anticancer activity against human MDA-MB-231 cells assessed as cell growth inhibition; format: functional, cell-based
Hs-578T [2] = experiment: Anticancer activity against human Hs-578T cells assessed as cell growth inhibition; format: functional, cell-based
HCC1937 = experiment: Anticancer activity against human HCC1937 cells assessed as cell growth inhibition; format: functional, cell-based
MCF7 = experiment: Anticancer activity against human MCF7 cells assessed as cell growth inhibition; format: functional, cell-based
HCC38 [3] = experiment: Anticancer activity against human HCC38 cells assessed as cell growth inhibition; format: functional, cell-based
MDA-MB-453 = experiment: Anticancer activity against human MDA-MB-453 cells assessed as cell growth inhibition; format: functional, cell-based
MDA-MB-468 = experiment: Anticancer activity against human MDA-MB-468 cells assessed as cell growth inhibition; format: functional, cell-based
Hs-578T [4] = experiment: Anticancer activity against human Hs-578T cells assessed as cell growth inhibition incubated for 24 hrs by ALDEFLUOR assay; format: functional, cell-based
MDA-MB-231 [5] = experiment: cells; details: Homo sapiens, MDA-MB-231, 24 h
BT-549 [6] = experiment: Anticancer activity against human BT-549 cells assessed as cell growth inhibition incubated for 4 to 10 days by MTT assay; format: functional, cell-based
HCC1806 [7] = experiment: Anticancer activity against human HCC1806 cells assessed as cell growth inhibition incubated for 4 to 10 days by MTT assay; format: functional, cell-based
Hs-578T [8] = experiment: Anticancer activity against human Hs-578T cells assessed as cell growth inhibition incubated for 4 to 10 days by MTT assay; format: functional, cell-based
MDA-MB-231 [9] = experiment: Anticancer activity against human MDA-MB-231 cells assessed as cell growth inhibition incubated for 4 to 10 days by MTT assay; format: functional, cell-based
HCC38 [10] = experiment: Anticancer activity against human HCC38 cells assessed as cell growth inhibition incubated for 4 to 10 days by MTT assay; format: functional, cell-based
BT-549 [11] = experiment: Anticancer activity against human BT-549 cells assessed as cell growth inhibition incubated for 24 hrs by CCK8 assay; format: functional, cell-based; details: BT-549, 24 h
MDA-MB-231 [12] = experiment: Anticancer activity against human MDA-MB-231 cells assessed as cell growth inhibition incubated for 24 hrs by CCK8 assay; format: functional, cell-based; details: MDA-MB-231, 24 h
MDA-MB-436 = experiment: Anticancer activity against human MDA-MB-436 cells assessed as cell growth inhibition incubated for 24 hrs by CCK8 assay; format: functional, cell-based; details: MDA-MB-436, 24 h
BT-20 = experiment: Anticancer activity against human BT-20 cells assessed as cell growth inhibition by MTT assay; format: functional, cell-based
Aurora kinase B [13] = molecular target: T1, Aurora kinase B (Homo sapiens, UniProt Q96GD4); experiment: Inhibition of human Aurora B kinase expressed in MDA-MB-231 cells; format: cell-based
T1 sequence (Q96GD4 whole entry): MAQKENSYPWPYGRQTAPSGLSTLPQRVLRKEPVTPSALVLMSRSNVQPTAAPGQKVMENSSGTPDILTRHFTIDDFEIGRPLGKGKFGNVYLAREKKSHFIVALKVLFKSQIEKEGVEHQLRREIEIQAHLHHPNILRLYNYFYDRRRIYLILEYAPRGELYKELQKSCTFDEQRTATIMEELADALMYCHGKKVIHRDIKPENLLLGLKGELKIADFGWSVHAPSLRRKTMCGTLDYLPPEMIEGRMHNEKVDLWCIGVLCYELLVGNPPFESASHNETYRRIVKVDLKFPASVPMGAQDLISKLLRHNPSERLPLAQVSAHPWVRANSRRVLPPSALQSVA

Aurora kinase B [14] = molecular target: T1, Aurora kinase B; experiment: Inhibition of human Aurora B kinase expressed in MDA-MB-468 cells; format: cell-based
[15] = molecular target: T2, Insulin-like growth factor 1 receptor (Homo sapiens, UniProt P08069); experiment: Inhibition of human IGF1R expressed in SUM149 cells; format: cell-based, SUM149PT
T2 sequence (P08069 31-736 limits assumed): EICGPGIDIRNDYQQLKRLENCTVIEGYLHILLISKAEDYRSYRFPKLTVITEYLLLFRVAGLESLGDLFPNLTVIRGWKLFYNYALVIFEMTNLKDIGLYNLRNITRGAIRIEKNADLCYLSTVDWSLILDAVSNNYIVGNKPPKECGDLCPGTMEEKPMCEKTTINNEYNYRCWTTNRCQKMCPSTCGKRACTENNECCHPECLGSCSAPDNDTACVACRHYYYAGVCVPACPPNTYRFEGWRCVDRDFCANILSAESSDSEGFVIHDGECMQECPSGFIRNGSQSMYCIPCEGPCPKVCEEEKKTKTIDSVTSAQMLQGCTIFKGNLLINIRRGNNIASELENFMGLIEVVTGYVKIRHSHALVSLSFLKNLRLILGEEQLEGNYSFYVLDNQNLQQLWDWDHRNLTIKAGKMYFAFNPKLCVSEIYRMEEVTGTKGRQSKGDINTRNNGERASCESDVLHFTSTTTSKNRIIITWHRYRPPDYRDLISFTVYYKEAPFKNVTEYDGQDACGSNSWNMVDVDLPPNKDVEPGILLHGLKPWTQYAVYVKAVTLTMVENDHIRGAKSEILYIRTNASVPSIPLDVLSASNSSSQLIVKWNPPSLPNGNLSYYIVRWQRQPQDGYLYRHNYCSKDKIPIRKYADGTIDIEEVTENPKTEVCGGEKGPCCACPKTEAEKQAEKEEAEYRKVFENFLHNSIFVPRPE
T2 sequence (P08069 741-1367 limits assumed): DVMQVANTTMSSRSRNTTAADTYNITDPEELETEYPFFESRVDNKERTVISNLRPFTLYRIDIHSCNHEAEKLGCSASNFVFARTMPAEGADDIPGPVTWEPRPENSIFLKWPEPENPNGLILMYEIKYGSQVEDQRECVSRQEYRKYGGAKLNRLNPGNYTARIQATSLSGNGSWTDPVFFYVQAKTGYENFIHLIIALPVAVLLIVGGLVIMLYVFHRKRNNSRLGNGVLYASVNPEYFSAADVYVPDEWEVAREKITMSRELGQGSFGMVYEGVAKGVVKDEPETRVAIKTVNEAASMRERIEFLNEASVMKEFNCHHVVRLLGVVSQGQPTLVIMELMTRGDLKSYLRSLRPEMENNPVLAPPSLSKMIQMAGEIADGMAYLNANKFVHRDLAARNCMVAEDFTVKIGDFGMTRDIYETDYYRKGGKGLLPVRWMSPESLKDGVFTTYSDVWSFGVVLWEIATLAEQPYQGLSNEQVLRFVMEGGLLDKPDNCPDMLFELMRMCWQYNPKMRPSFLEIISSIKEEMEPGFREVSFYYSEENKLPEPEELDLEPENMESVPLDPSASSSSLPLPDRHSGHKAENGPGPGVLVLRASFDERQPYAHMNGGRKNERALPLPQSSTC

Aurora kinase A = Aurora kinase A (Homo sapiens, UniProt O14965); experiment: Inhibition of human Aurora A kinase expressed in MDA-MB-468 cells; format: cell-based
Aurora kinase A, sequence (O14965 whole entry): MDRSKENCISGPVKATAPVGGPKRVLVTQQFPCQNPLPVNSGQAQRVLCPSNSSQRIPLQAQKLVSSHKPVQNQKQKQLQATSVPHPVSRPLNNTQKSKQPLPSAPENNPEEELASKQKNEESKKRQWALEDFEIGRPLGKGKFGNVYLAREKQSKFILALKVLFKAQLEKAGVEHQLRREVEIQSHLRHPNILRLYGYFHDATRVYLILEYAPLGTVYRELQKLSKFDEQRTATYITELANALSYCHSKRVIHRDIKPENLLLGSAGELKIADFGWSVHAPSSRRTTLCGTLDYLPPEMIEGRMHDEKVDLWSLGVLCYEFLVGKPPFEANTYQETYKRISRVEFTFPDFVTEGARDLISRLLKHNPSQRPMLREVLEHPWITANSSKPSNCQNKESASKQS

[16] = molecular target: T2, Insulin-like growth factor 1 receptor; experiment: Inhibition of human IGF1R expressed in MDA-MB-468 cells; format: cell-based
Aurora kinase B [17] = molecular target: T1, Aurora kinase B; experiment: Inhibition of human Aurora B kinase expressed in SUM149 cells; format: cell-based, SUM149PT
MDA-MB-231 [18] = experiment: Anticancer activity against human MDA-MB-231 cells assessed as cell growth inhibition incubated for 3 to 5 days by MTT assay; format: functional, cell-based
HCC70 = experiment: Anticancer activity against human HCC70 cells assessed as cell growth inhibition; format: functional, cell-based
HCC1187 = experiment: Anticancer activity against human HCC1187 cells assessed as cell growth inhibition; format: functional, cell-based
HCC1143 = experiment: Anticancer activity against human HCC1143 cells assessed as cell growth inhibition; format: functional, cell-based
HCC1806 [19] = experiment: Anticancer activity against human HCC1806 cells assessed as cell growth inhibition; format: functional
HCC1806 [20] = experiment: Anticancer activity against human HCC1806 cells assessed as cell growth inhibition incubated for 72 hrs by CellTiter-Blue assay; format: functional, cell-based; details: HCC1806, 72 h
MDA-MB-231 [21] = experiment: Anticancer activity against human MDA-MB-231 cells assessed as cell growth inhibition incubated for 72 hrs by CellTiter-Blue assay; format: functional, cell-based; details: MDA-MB-231, 72 h

Thioredoxin, sequence (P10599 whole entry): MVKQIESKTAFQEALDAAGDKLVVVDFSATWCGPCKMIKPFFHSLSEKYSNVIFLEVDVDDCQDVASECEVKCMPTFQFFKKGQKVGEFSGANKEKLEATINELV

Compound: Fc1ccc(-c2ccc(Nc3nc(Cl)nc(Cl)n3)cc2)cc1
IC50 (Thioredoxin): 10 µM

Compound: CCN(CC)c1ccc(CNc2ccc(Cl)cc2)cc1
EC50 (MCF7): 0.77 µM
EC50 (HCC1937): 0.44 µM
EC50 (HCC38 [3]): 1.2 µM
EC50 (MDA-MB-453): 2.51 µM
EC50 (MDA-MB-468): 2.5 µM

Compound: Nc1ccccc1NC(=O)c1ccc(CNC(=O)OCc2cccnc2)cc1 [ENTINOSTAT]
IC50 (Hs-578T [4]): 1 µM
IC50 (MDA-MB-231 [5]): 1 µM

Compound: Cc1sc2c(c1C)C(c1ccc(Cl)cc1)=N[C@@H](CC(=O)NCCCCCCCCCCNC(=O)C[C@@H]1N=C(c3ccc(Cl)cc3)c3c(sc(C)c3C)-n3c(C)nnc31)c1nnc(C)n1-2
IC50 (BT-549 [6]): 0.0068 µM
IC50 (HCC1806 [7]): 0.019 µM
IC50 (Hs-578T [8]): 0.0041 µM
IC50 (MDA-MB-231 [9]): 0.0103 µM
IC50 (HCC38 [10]): 0.015 µM

Compound: O=C1OC(=O)C2C3CCC(O3)C12 (configuration not stated)
IC50 (BT-549 [11]): 12.8 µg/mL (≈ 76.3 µM)
IC50 (MDA-MB-231 [12]): 21.8 µg/mL (≈ 130 µM)
IC50 (MDA-MB-436): 17.7 µg/mL (≈ 105 µM)

Compound: CCOC(=O)c1cnn(-c2ccc(NC(=O)C(Cl)=C(Cl)Cl)cc2)c1C(F)(F)F
IC50 (MDA-MB-231 [18]): 1 µM

Compound: Nc1ccc(-c2ccc3ncc4ccc(=O)n(-c5cccc(C(F)(F)F)c5)c4c3c2)cn1
GR50 (HCC1806 [19]): 0.01 µM
GR50 (HCC70): 0.01 µM

Further lines, with some results ahead:

IC50 (MDA-MB-231 [1]): 0.0061 µM
IC50 (HCC1937): 0.12 µM
Compound: Cc1nc(Nc2ncc(C(=O)Nc3cc(NC(=O)c4cccc(C(F)(F)F)c4)ccc3C)s2)cc(N2CCN(CCO)CC2)n1
IC50 (SUM149PT): 0.23 µM
IC50 (Hs-578T [2]): 0.0091 µM

IC50 (BT-20): 6.2 µM
Compound: CN(c1ccccc1CNc1nc(Nc2ccc3c(c2)CC(=O)N3)ncc1C(F)(F)F)S(C)(=O)=O

IC50 (Aurora kinase B [13]): 0.066 µM
IC50 (Aurora kinase B [14]): 0.478 µM
IC50 [15]: < 0.002 µM
IC50 (Aurora kinase A): 0.215 µM
IC50 [16]: < 0.002 µM
IC50 (Aurora kinase B [17]): 0.272 µM
Compound: Cc1ccsc1C(=O)Nc1cc(CN2CCN(C(=O)CO)CC2)ccc1/C=C/c1n[nH]c2ccccc12 [KW-2450]

IC50 (MDA-MB-231 [1]): 1 µM
IC50 (HCC1187): 1 µM
IC50 (HCC1143): 5 µM
IC50 (MDA-MB-468): 1 µM
Compound: N#CCNC(=O)c1ccc(-c2ccnc(Nc3ccc(N4CCOCC4)cc3)n2)cc1 [MOMELOTINIB]
IC50 (HCC70; Homo sapiens, HCC70): 10 µM

IC50 (HCC1806 [20]): 0.1 µM
IC50 (MDA-MB-231 [21]): 0.05 µM
Compound: O=C(Cc1cccc(OC(F)(F)F)c1)Nc1ccc(CCCCc2nnc(NC(=O)Cc3ccccn3)s2)nn1
